Assay results published in patent US7659299B2, “Compounds inhibiting the binding of sap for treating osteoarthritis” (Pentraxin Therapeutics Limited, priority 2003, dated 2010).

Assays:
Design in all cases: 5 μl of radiolabelled SAP in TN; from tissue
SAP [1] = molecular target: T1, SAP (Homo sapiens, UniProt P02743); experiment: Inhibition of binding of 125I radiolabelled SAP to Neisseria meningitidis immobilized in microtitre plates; conditions: for inhibition at 0.2 µM: compound 200 nM; for inhibition at 0.2 µM / inhibition at 2 µM / inhibition at 20 µM / inhibition at 200 µM / inhibition at 2000 µM: read-out: Percent inhibition of binding of radiolabelled SAP to immobilized Neisseria meningitidis; for inhibition at 2 µM: compound 2 μM; for inhibition at 20 µM: compound 20 μM; for inhibition at 200 µM: compound 200 μM; for inhibition at 2000 µM: compound 2 mM
T1 sequence (P02743 20-223): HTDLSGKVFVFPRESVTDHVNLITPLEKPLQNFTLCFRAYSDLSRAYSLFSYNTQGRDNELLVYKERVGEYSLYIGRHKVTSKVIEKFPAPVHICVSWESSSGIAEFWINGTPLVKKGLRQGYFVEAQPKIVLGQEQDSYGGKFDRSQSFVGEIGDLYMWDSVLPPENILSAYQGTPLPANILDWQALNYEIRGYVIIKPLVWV
Experimental: A suspension of heat killed Neisseria meningitidis at 1×10^8 organisms per ml in PBS was dispensed to polystyrene microtitre plates at 50 μl volumes per well, and left overnight at 4° C. All wells were then washed three times with 200 μl volumes of PBS containing 0.05% v/v Tween 20, prior to equilibration for 2 min with 0.01M Tris buffered 0.14M NaCl/0.002M CaCl2 at pH 8.0 (TC buffer), containing 4% w/v BSA and 0.05%/v Tween 20 (TCBT buffer). The wells were then emptied before adding to each one the following reagents. […] For background, non-specific, non calcium dependent, binding in the presence of EDTA: 5 μl radiolabelled SAP in TN and 45 μl 0.01M Tris buffered 0.14M NaCl at pH 8.0 containing 11.1 mM EDTA, 4.4% w/v BSA and 0.06% w/v Tween 20 (TEBT buffer) to provide final concentrations of EDTA, 10 mM; BSA, 4%; Tween 20, 0.05%. […] All wells were then incubated at room temperature for 2 h before being washed three times with 200 μl volumes of TCBT, allowed to dry for 1 h at room temperature, and bound radiolabelled SAP was then counted.
The capacity of the compounds tested to inhibit binding of SAP to meningococci is expressed as the percentage by which SAP binding was reduced compared to binding in the absence of any inhibitor (Table 1).

SAP [2] = molecular target: T1, SAP; experiment: Inhibition of binding of 125I radiolabelled SAP to native long chromatin immobilized in microtitre plates; conditions: for inhibition at 0.2 µM: compound 200 nM; for inhibition at 0.2 µM / inhibition at 2 µM / inhibition at 20 µM / inhibition at 200 µM / inhibition at 2000 µM: read-out: Percent inhibition of binding of radiolabelled SAP to immobilized native long chromatin; for inhibition at 2 µM: compound 2 μM; for inhibition at 20 µM: compound 20 μM; for inhibition at 200 µM: compound 200 μM; for inhibition at 2000 µM: compound 2 mM
SAP [3] = molecular target: T1, SAP; experiment: Inhibition of binding of 125I radiolabelled SAP to influenza virus immobilized in microtitre plates; conditions: for inhibition at 0.2 µM: compound 200 nM; for inhibition at 0.2 µM / inhibition at 2 µM / inhibition at 20 µM / inhibition at 200 µM / inhibition at 2000 µM: read-out: Percent inhibition of binding of radiolabelled SAP to immobilized influenza virus; for inhibition at 2 µM: compound 2 μM; for inhibition at 20 µM: compound 20 μM; for inhibition at 200 µM: compound 200 μM; for inhibition at 2000 µM: compound 2 mM
Experimental: A concentrated suspension of purified influenza virus A/Shanghai/24/90 at 10 mg protein per ml in PBS was diluted 1:50 in PBS and then dispensed to polystyrene microtitre plates at 50 μl volumes per well, and left overnight at 4° C. All wells were then emptied before blocking by addition to each well of 200 μl of 2% w/v BSA in PBS and incubation at room temperature for 1 h. All wells were then washed three times with 200 μl volumes of PBS containing 0.05% v/v Tween 20, prior to equilibration for 2 min with 0.01M Tris buffered 0.14M NaCl/0.002M CaCl2 at pH 8.0 (TC buffer), containing 4% w/v BSA and 0.05% v/v Tween 20 (TCBT buffer). The wells were then emptied before adding to each one the following reagents. […] For background, non-specific, non calcium dependent, binding in the presence of EDTA: 5 μl radiolabelled SAP in TN and 45 μl 0.01M Tris buffered 0.14M NaCl at pH 8.0 containing 11.1 mM EDTA, 4.4% w/v BSA and 0.06% w/v Tween 20 (TEBT buffer) to provide final concentrations of EDTA, 10 mM; BSA, 4%; Tween 20, 0.05%. […] All wells were then incubated at room temperature for 2 h before being washed three times with 200 μl volumes of TCBT, allowed to dry for 1 h at room temperature, and bound radiolabelled SAP was then counted. The compounds tested in the experiment shown here were the same as those specified in Example B above.
The capacity of the compounds tested to inhibit binding of SAP to the immobilised influenza virus is expressed as the percentage by which SAP binding was reduced compared to binding in the absence of any inhibitor (Table 3).

SMILES	inhibition at 0.2 µM (SAP [1]) [%]	inhibition at 2 µM (SAP [1]) [%]	inhibition at 20 µM (SAP [1]) [%]	inhibition at 200 µM (SAP [1]) [%]	inhibition at 2000 µM (SAP [1]) [%]	inhibition at 0.2 µM (SAP [2]) [%]	inhibition at 2 µM (SAP [2]) [%]	inhibition at 20 µM (SAP [2]) [%]	inhibition at 200 µM (SAP [2]) [%]	inhibition at 2000 µM (SAP [2]) [%]	inhibition at 0.2 µM (SAP [3]) [%]	inhibition at 2 µM (SAP [3]) [%]	inhibition at 20 µM (SAP [3]) [%]	inhibition at 200 µM (SAP [3]) [%]	inhibition at 2000 µM (SAP [3]) [%]	Percent inhibition of binding of radiolabelled SAP to immobilized Neisseria meningitidis (SAP [1]; EDTA 10 mM (printed in the 2 mM column)) [%]	Inhibition of binding of SAP to meningococci, in words (SAP [1]; summary of Table 1)	Inhibition of binding of SAP to chromatin, in words (SAP [2]; Table 2)	Inhibition of binding of SAP to immobilised influenza virus, in words (SAP [3]; summary of Table 3)
O=C(O)[C@H]1CCCN1C(=O)Cc1ccc(CC(=O)N2CCC[C@@H]2C(=O)O)cc1 [Ro-63-7777, (R)-1-[[4-[2-[(R)-2-Carboxy-pyrrolidin-1-yl]-2-oxo-ethyl]-phenyl]-acetyl]-pyrrolidine-2-carboxylic acid]	7	64	73	100	100	4	19	39	66	92	37	65	85	89	89	–	–	–	–
O=C(O)[C@H]1CCCN1C(=O)COc1cccc2c(OCC(=O)N3CCC[C@@H]3C(=O)O)cccc12 [Ro-64-5445, (R)-1-[[5-[2-[(R)-2-Carboxy-pyrrolidin-1-yl]-2-oxo-ethoxy]-naphthalen-1-yloxy]-acetyl]-pyrrolidine-2-carboxylic acid]	30	72	81	100	100	12	51	74	82	96	23	–	64	76	80	–	–	–	–
O=C(O)[C@H]1CCCN1C(=O)Cc1ccc(CC(=O)N2CCC[C@@H]2C(=O)O)c2ccccc12 [Ro-64-5607, (R)-1-[[4-[2-[(R)-2-Carboxy-pyrrolidin-1-yl]-2-oxo-ethyl]-naphthalen-1-yl]-acetyl]-pyrrolidine-2-carboxylic acid]	13	69	89	–	–	15	35	77	96	100	4	64	95	94	98	–	–	–	–
O=C(O)[C@H]1CCCN1C(=O)[C@H]1CC[C@@H](C(=O)N2CCC[C@@H]2C(=O)O)CC1 [Ro-64-2600, (R)-1-[cis-4-[(R)-2-Carboxy-pyrrolidine-1-carbonyl]-cyclohexanecarbonyl]-pyrrolidine-2-carboxylic acid]	31	73	93	–	–	1	35	67	94	100	0	76	83	89	92	–	–	–	–
COc1cccc(OCC(=O)N2CCC[C@@H]2C(=O)O)c1OCC(=O)N1CCC[C@@H]1C(=O)O [Ro-64-2845, (R)-1-[[2-[2-[(R)-2-carboxy-pyrrolidin-1-yl]-2-oxo-ethoxy]-3-methoxy-phenoxy]-acetyl]-pyrrolidine-2-carboxylic acid]	19	74	92	93	–	11	–	75	96	100	16	52	62	77	89	–	–	–	–
O=C(O)[C@H]1CCCN1C(=O)COc1ccccc1OCC(=O)N1CCC[C@@H]1C(=O)O [Ro-63-8593, (R)-1-[[2-[2-[(R)-2-Carboxy-pyrrolidin-1-yl]-2-oxo-ethoxy]-phenoxyl]-acetyl]-pyrrolidine-2-carboxylic acid]	18	–	87	100	100	7	34	77	89	96	44	68	88	93	94	–	–	–	–
O=C(O)[C@H]1CCCN1C(=O)Cc1cc(O)c(CC(=O)N2CCC[C@@H]2C(=O)O)cc1O [Ro-64-4383, (R)-1-[[2,5-Dihydroxy-4-[2-[(R)-2-carboxy-pyrrolidin-1-yl]-2-oxo-ethyl]-phenyl]-acetyl]-pyrrolidine-2-carboxylic acid]	1	76	95	100	100	0	45	78	88	97	24	57	80	89	89	–	–	–	–
O=C(O)CN(CCN(CC(=O)O)CC(=O)O)CC(=O)O [EDTA, reference compound]	–	–	–	–	–	–	–	–	–	–	–	–	–	–	–	100	All binding was inhibited	All binding was inhibited	All binding was inhibited
O=C(O)[C@H]1CCCN1C(=O)Cc1cccc(CC(=O)N2CCC[C@@H]2C(=O)O)c1 [Ro-64-2668, (R)-1-[[3-[2-[(R)-2-Carboxy-pyrrolidin-1-yl]-2-oxo-ethyl]-phenyl]-acetyl]-pyrrolidine-2-carboxylic acid]	28	64	92	100	100	0	18	56	94	98	25	68	73	77	82	–	–	–	–
